Laboratory results published in ChEMBL document CHEMBL3525924, “Cytochrome P450 3A-mediated microsomal biotransformation of 1α,25-dihydroxyvitamin D3 in mouse and human liver: drug-related induction and inhibition of catabolism” (Drug Metab Dispos, 2012).

Experiments:
Assay type in all cases: ADME
[1] = Drug metabolism in CD1 mouse liver microsomes assessed as metabolite formation at 20 uM after 30 mins by LC/MS analysis in presence of NADPH and CYP2A inhibitor 8-methoxypsoralen; settings: 0.5 h
[2] = Drug metabolism in prednisone treated CD1 mouse liver microsomes assessed as metabolite formation at 20 uM after 30 mins by LC/MS analysis in presence of NADPH and CYP450 inhibitor SKF525A; settings: 0.5 h
[3] = tested on: Liver microsome; test: Drug metabolism in human liver microsomes assessed as metabolite formation at 20 uM after 30 mins by LC/MS analysis in presence of NADPH and tamoxifen; settings: 0.5 h
[4] = Drug metabolism in dexamethasone treated CD1 mouse liver microsomes assessed as depletion of parent compound at 1 uM after 30 mins by LC/MS analysis in presence of NADPH; settings: liver microsomes from dexamethasone-treated mice, read-out: Drug metabolism
[5] = Drug metabolism in CD1 mouse liver microsomes assessed as metabolite formation at 20 uM after 30 mins by LC/MS analysis in presence of NADPH and CYP2B inhibitor orphenadrine; settings: 0.5 h
[6] = Drug metabolism in prednisone treated CD1 mouse liver microsomes assessed as 1alpha,23R,25(OH)3D3 metabolite formation at 20 uM after 30 mins by LC/MS analysis in presence of NADPH; settings: 0.5 h
[7] = Drug metabolism in dexamethasone treated CD1 mouse liver microsomes assessed as metabolite formation at 20 uM after 30 mins by LC/MS analysis in presence of NADPH and CYP2B inhibitor orphenadrine; settings: 0.5 h
[8] = Drug metabolism in prednisone treated CD1 mouse liver microsomes assessed as 1alpha,24R,25(OH)3D3 metabolite formation at 20 uM after 30 mins by LC/MS analysis in presence of NADPH; settings: 0.5 h
[9] = Drug metabolism in CD1 mouse liver microsomes assessed as depletion of parent compound at 1 uM after 30 mins by LC/MS analysis in presence of NADPH; settings: 0.5 h
[10] = Drug metabolism in dexamethasone treated CD1 mouse liver microsomes assessed as 1alpha,23R,25(OH)3D3 metabolite formation at 20 uM after 30 mins by LC/MS analysis in presence of NADPH; settings: 0.5 h
[11] = Drug metabolism in prednisone treated CD1 mouse liver microsomes assessed as metabolite formation at 20 uM after 30 mins by LC/MS analysis in presence of NADPH and CYP1A1 inhibitor alpha-naphthoflavone; settings: 0.5 h
[12] = Drug metabolism in CD1 mouse liver microsomes assessed as metabolite formation at 20 uM after 30 mins by LC/MS analysis in presence of NADPH and CYP2E inhibitor di-ethyldithiocarbamate; settings: 0.5 h
[13] = Drug metabolism in prednisone treated CD1 mouse liver microsomes assessed as metabolite formation at 20 uM after 30 mins by LC/MS analysis in presence of NADPH and CYP2A inhibitor 8-methoxypsoralen; settings: 0.5 h
[14] = Drug metabolism in CD1 mouse liver microsomes assessed as metabolite formation at 20 uM after 30 mins by LC/MS analysis in presence of NADPH and CYP2C inhibitor sulfaphenazole; settings: 0.5 h
[15] = Drug metabolism in dexamethasone treated CD1 mouse liver microsomes assessed as metabolite formation at 20 uM after 30 mins by LC/MS analysis in presence of NADPH and CYP1A2 inhibitor furafyline; settings: 0.5 h
[16] = Drug metabolism in dexamethasone treated CD1 mouse liver microsomes assessed as metabolite formation at 20 uM after 30 mins by LC/MS analysis in presence of NADPH and CYP1A1 inhibitor alpha-naphthoflavone; settings: 0.5 h
[17] = Drug metabolism in CD1 mouse liver microsomes assessed as metabolite formation at 20 uM after 30 mins by LC/MS analysis in presence of NADPH and CYP450 inhibitor SKF525A; settings: 0.5 h
[18] = tested on: Liver microsome; test: Drug metabolism in human liver microsomes assessed as metabolite formation at 20 uM after 30 mins by LC/MS analysis in presence of NADPH and paclitaxel; settings: 0.5 h
[19] = tested on: Liver microsome; test: Drug metabolism in human liver microsomes assessed as metabolite formation at 20 uM after 30 mins by LC/MS analysis in presence of NADPH and docetaxel; settings: 0.5 h
[20] = Drug metabolism in dexamethasone treated CD1 mouse liver microsomes assessed as metabolite formation at 20 uM after 30 mins by LC/MS analysis in presence of NADPH and CYP450 inhibitor SKF525A; settings: 0.5 h
[21] = Drug metabolism in dexamethasone treated CD1 mouse liver microsomes assessed as metabolite formation at 20 uM after 30 mins by LC/MS analysis in presence of NADPH and CYP2D inhibitor quinine; settings: 0.5 h
[22] = Drug metabolism in prednisone treated CD1 mouse liver microsomes assessed as metabolite formation at 20 uM after 30 mins by LC/MS analysis in presence of NADPH and CYP2D inhibitor quinine; settings: 0.5 h
[23] = tested on: Liver microsome; test: Drug metabolism in human liver microsomes assessed as metabolite formation at 20 uM after 30 mins by LC/MS analysis in presence of NADPH and ketoconazole; settings: 0.5 h
[24] = Drug metabolism in dexamethasone treated CD1 mouse liver microsomes assessed as metabolite formation at 20 uM after 30 mins by LC/MS analysis in presence of NADPH and CYP2A inhibitor 8-methoxypsoralen; settings: 0.5 h
[25] = Drug metabolism in prednisone treated CD1 mouse liver microsomes assessed as metabolite formation at 20 uM after 30 mins by LC/MS analysis in presence of NADPH and CYP2C inhibitor sulfaphenazole; settings: 0.5 h
[26] = tested on: Liver microsome; test: Drug metabolism in human liver microsomes assessed as metabolite formation at 20 uM after 30 mins by LC/MS analysis in presence of NADPH and ritonavir; settings: 0.5 h
[27] = Drug metabolism in CD1 mouse liver microsomes assessed as metabolite formation at 20 uM after 30 mins by LC/MS analysis in presence of NADPH and CYP1A2 inhibitor furafyline; settings: 0.5 h
[28] = Drug metabolism in dexamethasone treated CD1 mouse liver microsomes assessed as 1alpha,24S,25(OH)3D3 metabolite formation at 20 uM after 30 mins by LC/MS analysis in presence of NADPH; settings: 0.5 h
[29] = Drug metabolism in CD1 mouse liver microsomes assessed as metabolite formation at 20 uM after 30 mins by LC/MS analysis in presence of NADPH and CYP1A1 inhibitor alpha-naphthoflavone; settings: 0.5 h
[30] = Drug metabolism in dexamethasone treated CD1 mouse liver microsomes assessed as metabolite formation at 20 uM after 30 mins by LC/MS analysis in presence of NADPH and CYP2C inhibitor sulfaphenazole; settings: 0.5 h
[31] = Drug metabolism in prednisone treated CD1 mouse liver microsomes assessed as metabolite formation at 20 uM after 30 mins by LC/MS analysis in presence of NADPH and CYP2E inhibitor di-ethyldithiocarbamate; settings: 0.5 h
[32] = Drug metabolism in prednisone treated CD1 mouse liver microsomes assessed as depletion of parent compound at 1 uM after 30 mins by LC/MS analysis in presence of NADPH; settings: 0.5 h
[33] = Drug metabolism in CD1 mouse liver microsomes assessed as metabolite formation at 20 uM after 30 mins by LC/MS analysis in presence of NADPH and CYP2D inhibitor quinine; settings: 0.5 h
[34] = Drug metabolism in prednisone treated CD1 mouse liver microsomes assessed as 1alpha,23S,25(OH)3D3 metabolite formation at 20 uM after 30 mins by LC/MS analysis in presence of NADPH; settings: 0.5 h
[35] = Drug metabolism in prednisone treated CD1 mouse liver microsomes assessed as metabolite formation at 20 uM after 30 mins by LC/MS analysis in presence of NADPH and CYP1A2 inhibitor furafyline; settings: 0.5 h
[36] = Drug metabolism in prednisone treated CD1 mouse liver microsomes assessed as metabolite formation at 20 uM after 30 mins by LC/MS analysis in presence of NADPH and CYP2B inhibitor orphenadrine; settings: 0.5 h
[37] = tested on: Liver microsome; test: Drug metabolism in human liver microsomes assessed as assessed as metabolite formation at 20 uM after 30 mins by LC/MS analysis in presence of NADPH; settings: 0.5 h
[38] = Drug metabolism in dexamethasone treated CD1 mouse liver microsomes assessed as metabolite formation at 20 uM after 30 mins by LC/MS analysis in presence of NADPH and CYP2E inhibitor di-ethyldithiocarbamate; settings: 0.5 h
[39] = Drug metabolism in prednisone treated CD1 mouse liver microsomes assessed as 1alpha,24S,25(OH)3D3 metabolite formation at 20 uM after 30 mins by LC/MS analysis in presence of NADPH; settings: 0.5 h

Drug metabolism [1]: metabolite_detected
Drug metabolism [2]: metabolite_not_detected
Drug metabolism [3]: metabolite_not_detected
metabolised at 0.5 h, 1 µM [4]: 70%
Drug metabolism [5]: metabolite_detected
Drug metabolism [6]: metabolite_detected
Drug metabolism [7]: metabolite_detected
Drug metabolism [8]: metabolite_detected
Drug metabolism [9]: metabolite_not_detected
Drug metabolism [10]: metabolite_detected
Drug metabolism [11]: metabolite_detected
Drug metabolism [12]: metabolite_detected
Drug metabolism [13]: metabolite_detected
Drug metabolism [14]: metabolite_detected
Drug metabolism [15]: metabolite_detected
Drug metabolism [16]: metabolite_detected
Drug metabolism [17]: metabolite_not_detected
Drug metabolism [18]: metabolite_not_detected
Drug metabolism [19]: metabolite_not_detected
Drug metabolism [20]: metabolite_not_detected
Drug metabolism [21]: metabolite_detected
Drug metabolism [22]: metabolite_detected
Drug metabolism [23]: metabolite_not_detected
Drug metabolism [24]: metabolite_detected
Drug metabolism [25]: metabolite_detected
Drug metabolism [26]: metabolite_not_detected
Drug metabolism [27]: metabolite_detected
Drug metabolism [28]: metabolite_detected
Drug metabolism [29]: metabolite_detected
Drug metabolism [30]: metabolite_detected
Drug metabolism [31]: metabolite_detected
Drug metabolism [32]: metabolite_not_detected
Drug metabolism [33]: metabolite_detected
Drug metabolism [34]: metabolite_detected
Drug metabolism [35]: metabolite_detected
Drug metabolism [36]: metabolite_detected
Drug metabolism [37]: metabolite_detected
Drug metabolism [38]: metabolite_detected
Drug metabolism [39]: metabolite_detected
SMILES: C=C1/C(=C\C=C2/CCC[C@]3(C)[C@@H]([C@H](C)CCCC(C)(C)O)CC[C@@H]23)C[C@@H](O)C[C@@H]1O [CALCITRIOL]
